In US20230026163A1, “ANTICANCER COMPOUND AND MEDICAL USE THEREOF” (ASCENTAWITS PHARMACEUTICALS, LTD., priority 2019, published 2023):
pIC50: −log10 of the molar value.

Assays:
P-glycoprotein = P-glycoprotein (Homo sapiens, UniProt P08183); experiment: in vitro
Protocol: MDCKII-MDR1 cells were incubated in cell culture flasks. The incubator was set at 37° C., 5% CO2, and a guaranteed relative humidity of 95%. When the cells reached 70 to 90% confluence, the cells may be seeded to transwells.
50 μL of the cell suspensions were added to the apical chambers of each well of the 96-well transwells at a final seeding density of 5.45×10^5 cells/cm^2.
MDCKII-MDR1 cells may be fully confluent and differentiated after 4 to 8 days of incubation. At this time, the cells may be applied to penetration test. The monolayer membrane resistance was measured with a resistance meter (Millipore), and the resistance per well was recorded. After the test, the transwells were returned to the incubator.
The transwells with MDCKII-MDR1 cells were taken from the incubator. The cell monolayers were rinsed twice with buffer and incubated at 37° C. for 30 minutes.
The rate of the compounds from an apical end to a basolateral end was determined. 75 μL of the buffer containing the test sample was added to each well of the apical chambers (apical end), and 235 μL of the buffer was added to each well of the basolateral chambers (basolateral end).
The rate of the compounds transporting from the basolateral end to the apical end was determined. 75 μL of the buffer was added to the apical chambers (apical end), and 235 μL of the buffer containing the test sample was added to the basolateral chamber (basolateral end).
After the apical chambers and the basolateral chambers were combined respectively, the transwells were incubated at 37° C. for 2 hours.
After incubation, 50 μL of the sample from each well of the apical chambers and the basolateral chambers of the transwells was transferred to new sample tubes respectively. 200 μL of acetonitrile (100 nM of Alprazolam, 200 nM of Labetalol, 200 nM of caffeine, and 2 μM of Ketoprofen) as an internal standard was added to the sample tubes, vortexed for 10 minutes, and centrifuged at 3220 g for 30 minutes. 100 μL of the supernatant was taken and diluted with an equal volume of water for LC-MS/MS analysis. Each sample was incubated in triplicate.
Peak-areas were calculated from ion chromatography results. The apparent permeability coefficient (Papp, unit: cm/s×10-6) of the compounds was calculated by the following formula.
In the formula, VA was the volume of the solution at the acceptor end (Ap→B1 was 0.235 mL, and B1→Ap was 0.075 mL), Area was the membrane area (0.143 cm^2) of 96-well transwell, time was the incubation time (unit: s), [drug]acceptor referred to the drug concentration of the acceptor end after incubation, and [drug]initial,donor referred to the initial concentration of the donor end before incubation.
Efflux ratio was calculated with the following formula.
In the formula, Papp(B_A) was the apparent permeability coefficient from the basolateral end to the apical end, and Papp(A-B) was the apparent permeability coefficient from the apical end to the basolateral end.
The recovery rate was calculated with the following formula.
In the formula, VA was the solution volume of the acceptor end (unit: mL), VD was the solution volume of the donor end (unit: mL), [drug]acceptor referred to the drug concentration of the acceptor end after incubation, and [drug]initial,donor referred to the initial concentration of the donor end before incubation.

H460 = experiment: Cytotoxicity on cell lines of different species: H460; type: cell-based; conditions: NCI-H460, 72 h; H460, Human; exposure time: 3 days
Plasma stability, mouse = type: in vitro ADME
Protocol: (§1) Frozen plasma was melted immediately in a water bath at 37° C. […] The supernatants were collected into new tubes, respectively. pH values of the plasma were checked and recorded. Note: a, no more 2 times melted plasma was used since the sample was received; b, the plasma in pH 7 to pH 8 was used.
(§2) 1 mM of working solution of the test compounds and the control compound, propantheline, were prepared in DMSO. 1 mM of working solution of the control compound in […] was prepared in acetonitrile. 4 μL of the working solutions were added to 796 μL of pre-incubated plasma respectively to achieve a final concentration of 5 μM. The final concentration of solvent was 0.5%.
(§3) […] The test was performed in duplicate. […] 50 μL of the labeled plasma was added to new tubes containing 300 μL of the quench solution of room temperature, i.e., the sample with a preparation time of 0. The samples were vortexed to mix for 5 minutes. […] 100 μL of the supernatant was transferred to new plates.

Plasma stability, dog = type: in vitro ADME
Protocol: as §1, §2, §3

[1] = system: GA6201 tumor of HuPrime® model; experiment: PDX model, subcutaneously transplanted human gastric cancer; type: in vivo, BALB/c nude mice; conditions: for Tumor volume: ifosfamide 60 mg/kg i.p., compound 01 5-50 mg/kg
Protocol: BALB/c nude mice were subcutaneously inoculated with GA6201 tumor of HuPrime® model to establish a subcutaneously transplanted tumor model of human gastric cancer. The experiment was divided into a vehicle control group 1 with normal saline (pH 7.0-7.6), a control group 2 with ifosfamide (60 mg/kg), and an Experimental group (Exp. group) with compound 01 (5-50 mg/kg), and 5 mice per group.
The Exp. group with compound 01 (5-50 mg/kg) was administered by intraperitoneal injection for 5 consecutive days and stopped for 2 days a week, and administered for 2 weeks. Then, the dose was changed to 10 mg/kg by intraperitoneal injection, administered daily for 4 days. After that, the dose and administration method were changed. The dose was 20 mg/kg by tail vein injection for 1 day. After 10 days of drug withdrawal, the dose was changed again. The dose was 50 mg/kg by tail vein injection, once a week, for 2 weeks, and one week of observation. […] The safety was evaluated according to the changes in animal body weight and death.
The tumor volume of each group of mice was measured on different days, and the average value was obtained.

Sequence of P-glycoprotein (P08183 whole entry): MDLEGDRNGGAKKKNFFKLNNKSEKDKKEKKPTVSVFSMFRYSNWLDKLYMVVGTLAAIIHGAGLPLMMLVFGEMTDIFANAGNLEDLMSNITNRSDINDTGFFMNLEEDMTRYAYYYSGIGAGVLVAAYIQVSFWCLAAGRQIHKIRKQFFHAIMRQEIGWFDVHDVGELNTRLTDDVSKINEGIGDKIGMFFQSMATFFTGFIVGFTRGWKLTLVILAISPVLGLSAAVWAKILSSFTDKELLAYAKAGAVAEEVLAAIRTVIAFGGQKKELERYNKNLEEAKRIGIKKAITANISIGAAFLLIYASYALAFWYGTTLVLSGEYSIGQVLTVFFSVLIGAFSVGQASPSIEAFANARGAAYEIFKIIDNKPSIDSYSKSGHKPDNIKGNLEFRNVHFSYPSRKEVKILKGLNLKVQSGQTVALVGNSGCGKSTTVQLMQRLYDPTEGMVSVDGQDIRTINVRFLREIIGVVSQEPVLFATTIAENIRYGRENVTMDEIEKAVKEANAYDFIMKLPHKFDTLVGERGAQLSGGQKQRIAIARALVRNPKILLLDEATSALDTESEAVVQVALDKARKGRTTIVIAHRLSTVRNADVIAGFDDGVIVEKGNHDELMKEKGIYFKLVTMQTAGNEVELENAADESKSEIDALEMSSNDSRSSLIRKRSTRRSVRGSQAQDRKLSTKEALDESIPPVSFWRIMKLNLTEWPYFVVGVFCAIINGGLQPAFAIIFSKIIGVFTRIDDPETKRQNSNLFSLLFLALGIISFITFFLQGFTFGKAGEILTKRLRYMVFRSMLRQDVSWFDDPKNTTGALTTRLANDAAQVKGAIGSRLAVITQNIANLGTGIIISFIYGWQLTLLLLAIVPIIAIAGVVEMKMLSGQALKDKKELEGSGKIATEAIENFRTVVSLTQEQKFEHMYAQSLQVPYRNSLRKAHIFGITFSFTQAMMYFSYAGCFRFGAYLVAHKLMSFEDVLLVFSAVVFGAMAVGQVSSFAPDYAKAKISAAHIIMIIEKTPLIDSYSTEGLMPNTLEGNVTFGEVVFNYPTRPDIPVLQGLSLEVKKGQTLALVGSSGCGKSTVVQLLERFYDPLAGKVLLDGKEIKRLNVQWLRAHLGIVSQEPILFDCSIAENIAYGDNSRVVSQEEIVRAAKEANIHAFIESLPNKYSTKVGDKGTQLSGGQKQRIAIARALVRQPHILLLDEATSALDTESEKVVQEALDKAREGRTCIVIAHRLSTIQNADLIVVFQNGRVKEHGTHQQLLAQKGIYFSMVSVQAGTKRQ

## O=[N+]([O-])c1ccc(C(OP(=O)(N2CC2)N2CC2)C(F)(F)F)c2ccccc12 (stereo not shown) [Compound 01]
P-glycoprotein; dog, MDCK-MDR1
  Papp A→B at 2 h: 18.6 ×10⁻⁶ cm/s
  Papp B→A at 2 h: 11.9 ×10⁻⁶ cm/s
P-glycoprotein; dog, MDCK-MDR1, Recovery (%) AP-BL, Verapamil 0 μM
  recovery at 2 h: 58.6%
P-glycoprotein; dog, MDCK-MDR1, Recovery (%) AP-BL, Verapamil 100 μM
  recovery at 2 h: 63.4%
P-glycoprotein; dog, MDCK-MDR1, Recovery (%) BL-AP, Verapamil 0 μM
  recovery at 2 h: 58.6%
P-glycoprotein; dog, MDCK-MDR1, Recovery (%) BL-AP, Verapamil 100 μM
  recovery at 2 h: 67.3%
P-glycoprotein; with vs without Verapamil
  P-glycoprotein substrate (experimental conclusion): not P-glycoprotein substrates
H460
  pIC50: 7.00
Plasma stability, mouse; Mouse plasma, 5 μM, 37° C., after 30 minutes
  Remaining percentage: 55.07%
Plasma stability, mouse; mouse
  Stability in plasma (conclusion): relatively unstable
Plasma stability, dog; Dog plasma, 5 μM, 37° C., after 30 minutes
  Remaining percentage: 85.04%
Plasma stability, dog; dog
  Stability in plasma (conclusion): relatively stable
[1]; GA6201 PDX
  Inhibition of tumor growth compared with ifosfamide (conclusion): obvious advantages in inhibiting tumor growth
[1]; day 0
  Tumor volume: 94.24 mm^3
[1]; day 3
  Tumor volume: 121.79 mm^3
[1]; day 7
  Tumor volume: 123.19 mm^3
[1]; day 10
  Tumor volume: 153.46 mm^3
[1]; day 14
  Tumor volume: 191.17 mm^3
[1]; day 17
  Tumor volume: 219.91 mm^3
[1]; day 21
  Tumor volume: 246.57 mm^3
[1]; day 24
  Tumor volume: 271.72 mm^3
[1]; day 28
  Tumor volume: 280.86 mm^3
[1]; day 31
  Tumor volume: 270.68 mm^3
[1]; day 35
  Tumor volume: 299.31 mm^3
[1]; day 38
  Tumor volume: 277.17 mm^3
[1]; day 42
  Tumor volume: 300.46 mm^3
[1]; day 45
  Tumor volume: 342.08 mm^3
[1]; day 49
  Tumor volume: 287.47 mm^3
